Results reported in ChEMBL document CHEMBL4715829, “Heterodimeric Rifampicin-Tobramycin conjugates break intrinsic resistance of Pseudomonas aeruginosa to doxycycline and chloramphenicol in vitro and in a Galleria mellonella in vivo model” (Eur J Med Chem, 2019).
Converted amounts (≈) assume the structure as drawn.

Experiments:
Pseudomonas aeruginosa [1] = experiment: Antibacterial activity against Pseudomonas aeruginosa 200 harboring efflux mutant assessed as reduction in bacterial growth incubated for 18 hrs by broth microdilution assay; format: functional
Pseudomonas aeruginosa [2] = experiment: Antibacterial activity against Pseudomonas aeruginosa 264-101354 assessed as reduction in bacterial growth incubated for 18 hrs by broth microdilution assay; format: functional
[3] = test system: Staphylococcus epidermidis; experiment: Antibacterial activity against methicillin-susceptible Staphylococcus epidermidis CANWARD 81388 assessed as reduction in bacterial growth incubated for 18 hrs by broth microdilution assay; format: functional
Pseudomonas aeruginosa [4] = experiment: Antibacterial activity against Pseudomonas aeruginosa PAO1 assessed as reduction in bacterial growth by measuring cefotaxime MIC at <=[…] uM in presence of cefotaxime incubated for 18 hrs by broth microdilution assay based checkerboard assay (reference value: […] microg/ml); format: functional; details: dose microM <=10
Pseudomonas aeruginosa [5] = experiment: Antibacterial activity against wild type Pseudomonas aeruginosa PAO1 assessed as reduction in bacterial growth incubated for 18 hrs by broth microdilution assay; format: functional
Pseudomonas aeruginosa [6] = experiment: Antibacterial activity against Pseudomonas aeruginosa PAO1 assessed as fractional inhibitory concentration index in presence of Aztreonam incubated for 18 hrs by broth microdilution assay based checkerboard assay; format: functional
Pseudomonas aeruginosa [7] = experiment: Antibacterial activity against Pseudomonas aeruginosa 259-96918 assessed as reduction in bacterial growth incubated for 18 hrs by broth microdilution assay; format: functional
Pseudomonas aeruginosa [8] = experiment: Antibacterial activity against Pseudomonas aeruginosa PAO1 assessed as reduction in bacterial growth by measuring vancomycin MIC at <=10 uM in presence of vancomycin incubated for 18 hrs by broth microdilution assay based checkerboard assay (reference value: 256 microg/ml); format: functional; details: dose microM <=10
Pseudomonas aeruginosa [9] = experiment: Antibacterial activity against Pseudomonas aeruginosa PAO1 assessed as fractional inhibitory concentration index in presence of Cefotaxime incubated for 18 hrs by broth microdilution assay based checkerboard assay; format: functional
Pseudomonas aeruginosa [10] = experiment: Antibacterial activity against Pseudomonas aeruginosa 91433 assessed as reduction in bacterial growth incubated for 18 hrs by broth microdilution assay; format: functional
Streptococcus pneumoniae = experiment: Antibacterial activity against Streptococcus pneumoniae ATCC 49619 assessed as reduction in bacterial growth incubated for 18 hrs by broth microdilution assay; format: functional
Pseudomonas aeruginosa [11] = experiment: Antibacterial activity against gentamicin-resistant Pseudomonas aeruginosa CAN-ICU 62308 assessed as reduction in bacterial growth incubated for 18 hrs by broth microdilution assay; format: functional
Pseudomonas aeruginosa [12] = experiment: Antibacterial activity against Pseudomonas aeruginosa PAO1 assessed as fractional inhibitory concentration index in presence of Nitrofurantoin incubated for 18 hrs by broth microdilution assay based checkerboard assay; format: functional
Pseudomonas aeruginosa [13] = experiment: Antibacterial activity against Pseudomonas aeruginosa PAO1 assessed as reduction in bacterial growth by measuring erythromycin MIC at <=10 uM in presence of erythromycin incubated for 18 hrs by broth microdilution assay based checkerboard assay (reference value: 256 microg/ml); format: functional; details: dose microM <=10
Pseudomonas aeruginosa [14] = experiment: Antibacterial activity against Pseudomonas aeruginosa 262-101856 assessed as fractional inhibitory concentration index in presence of doxycycline incubated for 18 hrs by broth microdilution assay; format: functional
Acinetobacter baumannii [15] = experiment: Antibacterial activity against Acinetobacter baumannii ATCC 17978 assessed as potentiation of doxycycline-induced antibacterial activity by measuring doxycycline MIC at 10 uM incubated for 18 hrs in presence of doxycycline by broth microdilution assay (reference value: 0.25 ug/ml); format: functional
Pseudomonas aeruginosa [16] = experiment: Potentiation of chloramphenicol-induced antibacterial activity against Pseudomonas aeruginosa 264-101354 incubated for 18 hrs in presence of chloramphenicol by broth microdilution assay; format: functional, organism-based; details: dose 1-32 µg/ml
Klebsiella pneumoniae [17] = experiment: Antibacterial activity against Klebsiella pneumoniae ATCC 16381 assessed as fractional inhibitory concentration index in presence of doxycycline incubated for 18 hrs by broth microdilution assay; format: functional
Escherichia coli [18] = experiment: Antibacterial activity against Escherichia coli ATCC 25922 assessed as potentiation of chloramphenicol-induced antibacterial activity by measuring chloramphenicol MIC at 10 uM incubated for 18 hrs in presence of chloramphenicol by broth microdilution assay (reference value: 2 ug/ml); format: functional
Klebsiella pneumoniae [19] = experiment: Antibacterial activity against Klebsiella pneumoniae ATCC 16381 assessed as potentiation of chloramphenicol-induced antibacterial activity by measuring chloramphenicol MIC at 10 uM incubated for 18 hrs in presence of chloramphenicol by broth microdilution assay (reference value: 1024 ug/ml); format: functional
Pseudomonas aeruginosa [20] = experiment: Antibacterial activity against Pseudomonas aeruginosa 91433 assessed as fractional inhibitory concentration index in presence of doxycycline incubated for 18 hrs by broth microdilution assay; format: functional
Pseudomonas aeruginosa [21] = experiment: Potentiation of chloramphenicol-induced antibacterial activity against Pseudomonas aeruginosa PAO1 incubated for 18 hrs in presence of chloramphenicol by broth microdilution assay; format: functional, organism-based; details: dose 1-32 µg/ml
Enterobacter cloacae [22] = experiment: Antibacterial activity against Enterobacter cloacae ATCC 117029 assessed as fractional inhibitory concentration index in presence of doxycycline incubated for 18 hrs by broth microdilution assay; format: functional
Escherichia coli [23] = experiment: Antibacterial activity against Escherichia coli ATCC 25922 assessed as fractional inhibitory concentration index in presence of chloramphenicol incubated for 18 hrs by broth microdilution assay; format: functional
Acinetobacter baumannii [24] = experiment: Antibacterial activity against Acinetobacter baumannii ATCC 17978 assessed as fractional inhibitory concentration index in presence of doxycycline incubated for 18 hrs by broth microdilution assay; format: functional
Pseudomonas aeruginosa [25] = experiment: Antibacterial activity against Pseudomonas aeruginosa 101885 assessed as fractional inhibitory concentration index in presence of doxycycline incubated for 18 hrs by broth microdilution assay; format: functional
Pseudomonas aeruginosa [26] = experiment: Antibacterial activity against Pseudomonas aeruginosa 101885 assessed as fractional inhibitory concentration index in presence of chloramphenicol incubated for 18 hrs by broth microdilution assay; format: functional
Pseudomonas aeruginosa [27] = experiment: Antibacterial activity against Pseudomonas aeruginosa 264-101354 assessed as fractional inhibitory concentration index in presence of chloramphenicol incubated for 18 hrs by broth microdilution assay; format: functional
Pseudomonas aeruginosa [28] = experiment: Potentiation of doxycycline-induced antibacterial activity against Pseudomonas aeruginosa 264-101354 incubated for 18 hrs in presence of doxycycline by broth microdilution assay; format: functional, organism-based; details: dose 1-32 µg/ml
Enterobacter cloacae [29] = experiment: Antibacterial activity against Enterobacter cloacae ATCC 117029 assessed as fractional inhibitory concentration index in presence of chloramphenicol incubated for 18 hrs by broth microdilution assay; format: functional
Pseudomonas aeruginosa [30] = experiment: Antibacterial activity against Pseudomonas aeruginosa 264-101354 assessed as fractional inhibitory concentration index in presence of doxycycline incubated for 18 hrs by broth microdilution assay; format: functional
Pseudomonas aeruginosa [31] = experiment: Potentiation of doxycycline-induced antibacterial activity against Pseudomonas aeruginosa PAO1 incubated for 18 hrs in presence of doxycycline by broth microdilution assay; format: functional, organism-based; details: dose 1-32 µg/ml
Acinetobacter baumannii [32] = experiment: Antibacterial activity against Acinetobacter baumannii ATCC 17978 assessed as potentiation of chloramphenicol-induced antibacterial activity by measuring chloramphenicol MIC at 10 uM incubated for 18 hrs in presence of chloramphenicol by broth microdilution assay (reference value: 64 ug/ml); format: functional
Klebsiella pneumoniae [33] = experiment: Antibacterial activity against Klebsiella pneumoniae ATCC 16381 assessed as reduction in bacterial growth incubated for 18 hrs by broth microdilution assay; format: functional
Pseudomonas aeruginosa [34] = experiment: Antibacterial activity against Pseudomonas aeruginosa 100036 assessed as fractional inhibitory concentration incubated for 18 hrs in presence of doxycycline by broth microdilution assay; format: functional
Pseudomonas aeruginosa [35] = experiment: Antibacterial activity against Pseudomonas aeruginosa 262-101856 assessed as fractional inhibitory concentration incubated for 18 hrs in presence of doxycycline by broth microdilution assay; format: functional

Row | Compound | MIC (Pseudomonas aeruginosa [1]) | MIC (Pseudomonas aeruginosa [2]) | MIC [3] | MIC (Pseudomonas aeruginosa [4]) | MIC (Pseudomonas aeruginosa [5]) | fractional inhibitory concentration index (FICI) (Pseudomonas aeruginosa [6]) | MIC (Pseudomonas aeruginosa [7]) | MIC (Pseudomonas aeruginosa [8]) | fractional inhibitory concentration index (FICI) (Pseudomonas aeruginosa [9]) | MIC (Pseudomonas aeruginosa [10]) | MIC (Streptococcus pneumoniae) | MIC (Pseudomonas aeruginosa [11]) | fractional inhibitory concentration index (FICI) (Pseudomonas aeruginosa [12]) | MIC (Pseudomonas aeruginosa [13]) | fractional inhibitory concentration index (FICI) (Pseudomonas aeruginosa [14]) | fractional inhibitory concentration index (FICI) (Pseudomonas aeruginosa [27]) | further results
1 | CO[C@H]1/C=C/O[C@@]2(C)Oc3c(C)c(O)c4c(O)c(c(/C=N/N5CCN(Cc6cn(CCCCO[C@@H]7[C@@H](O[C@H]8O[C@H](CO)[C@@H](O)[C@H](N)[C@H]8O)[C@H](N)C[C@H](N)[C@H]7O[C@H]7O[C@H](CN)[C@@H](O)C[C@H]7N)nn6)CC5)c(O)c4c3C2=O)NC(=O)/C(C)=C\C=C\[C@H](C)[C@H](O)[C@@H](C)[C@@H](O)[C@@H](C)[C@H](OC(C)=O)[C@@H]1C.O=C(O)C(F)(F)F.O=C(O)C(F)(F)F.O=C(O)C(F)(F)F.O=C(O)C(F)(F)F.O=C(O)C(F)(F)F | 256 µg/mL | 256 µg/mL | 2 µg/mL | 16 µg/mL | 512 µg/mL | 1.03 | > 128 µg/mL | 256 µg/mL | 1.03 | > 128 µg/mL | 1 µg/mL | > 32 µg/mL | 1 | 128 µg/mL |  |  | 
2 | CO[C@H]1/C=C/O[C@@]2(C)Oc3c(C)c(O)c4c(O)c(c(/C=N/N5CCN(Cc6cn(CCCCCCCCCCCCO[C@@H]7[C@@H](O[C@H]8O[C@H](CO)[C@@H](O)[C@H](N)[C@H]8O)[C@H](N)C[C@H](N)[C@H]7O[C@H]7O[C@H](CN)[C@@H](O)C[C@H]7N)nn6)CC5)c(O)c4c3C2=O)NC(=O)/C(C)=C\C=C\[C@H](C)[C@H](O)[C@@H](C)[C@@H](O)[C@@H](C)[C@H](OC(C)=O)[C@@H]1C.O=C(O)C(F)(F)F.O=C(O)C(F)(F)F.O=C(O)C(F)(F)F.O=C(O)C(F)(F)F.O=C(O)C(F)(F)F | 128 µg/mL | 256 µg/mL | 4 µg/mL | 16 µg/mL | 512 µg/mL | 1.03 | > 128 µg/mL | 128 µg/mL | 1.03 | > 128 µg/mL | 8 µg/mL | > 32 µg/mL | 0.53 | 8 µg/mL | <0.07 | 0.063 | MIC (Acinetobacter baumannii [15]): 0.25 µg/mL; Activity (Pseudomonas aeruginosa [16]): Dose-dependent effect; fractional inhibitory concentration index (FICI) (Klebsiella pneumoniae [17]): <0.516; MIC (Escherichia coli [18]): 1 µg/mL; MIC (Klebsiella pneumoniae [19]): 256 µg/mL; fractional inhibitory concentration index (FICI) (Pseudomonas aeruginosa [20]): 0.133; Activity (Pseudomonas aeruginosa [21]): Dose-dependent effect; fractional inhibitory concentration index (FICI) (Enterobacter cloacae [22]): 0.375; fractional inhibitory concentration index (FICI) (Escherichia coli [23]): 0.625; fractional inhibitory concentration index (FICI) (Acinetobacter baumannii [24]): 1.25; fractional inhibitory concentration index (FICI) (Pseudomonas aeruginosa [25]): 0.094; fractional inhibitory concentration index (FICI) (Pseudomonas aeruginosa [26]): 0.07; Activity (Pseudomonas aeruginosa [28]): Dose-dependent effect; fractional inhibitory concentration index (FICI) (Enterobacter cloacae [29]): 0.375; fractional inhibitory concentration index (FICI) (Pseudomonas aeruginosa [30]): 0.078; Activity (Pseudomonas aeruginosa [31]): Dose-dependent effect; MIC (Acinetobacter baumannii [32]): 64 µg/mL; MIC (Klebsiella pneumoniae [33]): > 128 µg/mL
3 | CO[C@H]1/C=C/O[C@@]2(C)Oc3c(C)c(O)c4c(O)c(c(/C=N/N5CCN(C)CC5)c(O)c4c3C2=O)NC(=O)/C(C)=C\C=C\[C@H](C)[C@H](O)[C@@H](C)[C@@H](O)[C@@H](C)[C@H](OC(C)=O)[C@@H]1C [RIFAMPIN] | 16 µg/mL (≈ 19.4 µM) | 16 µg/mL (≈ 19.4 µM) | ≤ 0.25 µg/mL |  | 16 µg/mL (≈ 19.4 µM) |  | 16 µg/mL (≈ 19.4 µM) |  |  | 16 µg/mL (≈ 19.4 µM) | ≤ 0.25 µg/mL | 32 µg/mL (≈ 38.9 µM) |  |  | 1.5 | 1.5 | FIC (Pseudomonas aeruginosa [34]): 0.25; FIC (Pseudomonas aeruginosa [35]): 0.5
